Here are results for 30 substances from patent US12037583B2, “Compositions and methods for immunooncology” (Novartis AG, priority 2015, dated 2024).

One series relates to PDCD1. As to the kind of experiment: NGS editing of PDCD1 by dgRNA in HEK cells stably expressing Cas9.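 Also: dgRNA lipofected into Cas9-expressing HEK cells, lysed after 24 h, target amplicon sequenced, editing = reads carrying insertions or deletions as percent of all reads including wild type.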 Type of series: cell-based, human. Conditions: at least 3 experiments.
The test system of a further series is CIITA. As to the kind of experiment: NGS editing and frameshift edit of CIITA by dgRNA in HEK293 cells expressing Cas9. Conditions: HEK293 cells stably expressing Cas9, dgRNA to CIITA; for Avg. % Edit: N = 3; for Avg. % FS: frameshift edit. Type of series: cell-based, human.

Procedure for CIITA: Editing of CIITA with dgRNAs targeted to the CIITA gene were assayed in HEK293 cells engineered to express Cas9, as described above in Example 1.
Source text for PDCD1: Transfection of Cas9GFP-expressing HEK293 cells (HEK-293_Cas9GFP) was used for primary screening of target specific crRNAs. […] Selected crRNAs were chemically synthesized and delivered in a 96 well format. HEK-293-Cas9GFP cells were transfected with target crRNAs comprising a flagpole region of SEQ ID NO: 6607 in a 1:1 ratio with stock trRNA of SEQ ID NO: 6660. The transfection was mediated using lipofection technology according to manufacturer's protocol (DharmaFECT Duo, GE LifeSciences; or RNAiMax, LifeTechnologies). Transfected cells were lysed 24 h following lipofection and editing (e.g., cleavage) was detected within lysates with the T7E1 assay and/or next generation sequencing (NGS; below).
PCR primers were first designed around the target site, and the genomic area of interest PCR amplified. Additional PCR was performed according to manufacturer's protocols (Illumina) to add the necessary chemistry for sequencing. The amplicons were then sequenced on an Illumina MiSeq instrument. The reads were then aligned to the human reference genome (e.g., hg38) after eliminating those having low quality scores. From the resulting files containing the reads mapped to the reference genome (BAM files), reads which overlap the target region of interest were selected and the number of wild type reads versus the number of reads which contain an insertion or deletion was calculated. The editing percentage was then defined as the total number of reads with insertions or deletions over the total number of reads, including wild type. To determine the pattern of insertions and/or deletions that resulted from the edit, the aligned reads with indels were selected and the number of a reads with a given indel were summed.
Editing of CRISPR systems containing dgRNA molecules comprising targeting domains to sequences of PDCD1 were tested for editing in HEK (gRNA delivered to cells stably expressing Cas9) and CD3+ T cells (gRNA and Cas9 delivered as RNP) according to the methods described herein.
All mean editing % are as measured by NGS and are based on at least 3 experiments.

Regarding “CR000832: dgRNA targeting domain to PDCD1 (guide GAGAAGGCGGCACUCUGGUG; targeting domain within dual guide RNA, chemistry not given here, further chemistry not given here; listed as Homo sapiens)”, the “HEK (NGS) % Editing Mean” value in the series on PDCD1 is recorded as 49%.

For the substance “CR000904: dgRNA targeting domain to PDCD1 (guide CUGGUGGUUGGUGUCGUGGG; targeting domain within dual guide RNA, chemistry not given here, further chemistry not given here; listed as Homo sapiens)”, the “HEK (NGS) % Editing Mean” value in the series with PDCD1 worked out at 70%.

For the substance “CR000825: dgRNA targeting domain to PDCD1 (guide CUCAGGCGGAGGUGAGCGGA; targeting domain within dual guide RNA, chemistry not given here, further chemistry not given here; listed as Homo sapiens)”, the “HEK (NGS) % Editing Mean” value in the series on PDCD1 worked out at 46%.

Regarding “CR000843: dgRNA targeting domain to PDCD1 (guide GAGAAGGUGGGGGGGUUCCA; targeting domain within dual guide RNA, chemistry not given here, further chemistry not given here; listed as Homo sapiens)”, the “HEK (NGS) % Editing Mean” value in the series with PDCD1 is given as 8%.

As for “CR000842: dgRNA targeting domain to PDCD1 (guide CACCUACCUAAGAACCAUCC; targeting domain within dual guide RNA, chemistry not given here, further chemistry not given here; listed as Homo sapiens)”, the “HEK (NGS) % Editing Mean” value in the series on PDCD1 is on record as 40%.

With “CR000826: dgRNA targeting domain to PDCD1 (guide ACUGCUCAGGCGGAGGUGAG; targeting domain within dual guide RNA, chemistry not given here, further chemistry not given here; listed as Homo sapiens)”, in the series with PDCD1, the “HEK (NGS) % Editing Mean” value is 70%.

For the substance “CR000871: dgRNA targeting domain to PDCD1 (guide GUGUCACACAACUGCCCAAC; targeting domain within dual guide RNA, chemistry not given here, further chemistry not given here; listed as Homo sapiens)”, the “HEK (NGS) % Editing Mean” value in the series with PDCD1 turned out to be 57%.

Take “CR000870: dgRNA targeting domain to PDCD1 (guide CGUGUCACACAACUGCCCAA; targeting domain within dual guide RNA, chemistry not given here, further chemistry not given here; listed as Homo sapiens)”: the “HEK (NGS) % Editing Mean” value in the series on PDCD1 amounted to 66%.

On to “CR000845: dgRNA targeting domain to PDCD1 (guide UCGGUCACCACGAGCAGGGC; targeting domain within dual guide RNA, chemistry not given here, further chemistry not given here; listed as Homo sapiens)”, for which the “HEK (NGS) % Editing Mean” value in the series with PDCD1 was 21%.

Consider “CR000918: dgRNA targeting domain to PDCD1 (guide GAAAAGAGUGAGACUCACCA; targeting domain within dual guide RNA, chemistry not given here, further chemistry not given here; listed as Homo sapiens)”, for which the “HEK (NGS) % Editing Mean” value in the series on PDCD1 was determined as 50%.

Turning to “CR000869: dgRNA targeting domain to PDCD1 (guide GCAGUUGUGUGACACGGAAG; targeting domain within dual guide RNA, chemistry not given here, further chemistry not given here; listed as Homo sapiens)”, the “HEK (NGS) % Editing Mean” value in the series with PDCD1 is 55%.

As to “CR000866: dgRNA targeting domain to PDCD1 (guide CGGAAGCGGCAGUCCUGGCC; targeting domain within dual guide RNA, chemistry not given here, further chemistry not given here; listed as Homo sapiens)”, the “HEK (NGS) % Editing Mean” value in the series on PDCD1 was 4%.

As to “CR000849: dgRNA targeting domain to PDCD1 (guide CCCCUUCGGUCACCACGAGC; targeting domain within dual guide RNA, chemistry not given here, further chemistry not given here; listed as Homo sapiens)”, the “HEK (NGS) % Editing Mean” value in the series on PDCD1 is on record as 29%.

With “CR000915: dgRNA targeting domain to PDCD1 (guide ACAAUAGGAGCCAGGCGCAC; targeting domain within dual guide RNA, chemistry not given here, further chemistry not given here; listed as Homo sapiens)”, the “HEK (NGS) % Editing Mean” value with PDCD1 is listed as 35%.

With “CR000914: dgRNA targeting domain to PDCD1 (guide CUGCAGGGACAAUAGGAGCC; targeting domain within dual guide RNA, chemistry not given here, further chemistry not given here; listed as Homo sapiens)”, the “HEK (NGS) % Editing Mean” value in the series with PDCD1 is given as 5%.

Take “CR000858: dgRNA targeting domain to PDCD1 (guide CAGCUUGUCCGUCUGGUUGC; targeting domain within dual guide RNA, chemistry not given here, further chemistry not given here; listed as Homo sapiens)”: in the series on PDCD1, the “HEK (NGS) % Editing Mean” value is 16%.

In the case of “CR000833: dgRNA targeting domain to PDCD1 (guide AGGCGCCCUGGCCAGUCGUC; targeting domain within dual guide RNA, chemistry not given here, further chemistry not given here; listed as Homo sapiens)”, the “HEK (NGS) % Editing Mean” value with PDCD1 is 34%.

“CR003022 (guide AGACUGCCAGUCACCACAGU; targeting domain within dual guide RNA, chemistry not given here, further chemistry not given here; listed as Homo sapiens)”: in the series on CIITA, the “Avg. % Edit” value came to 23.73% and the “Avg. % FS” value turned out to be 17.96%.

Turning to “CR003002 (guide GGCCCUCCAGCUGGGAGUCC; targeting domain within dual guide RNA, chemistry not given here, further chemistry not given here; listed as Homo sapiens)”, in the series on CIITA, the “Avg. % Edit” value was determined as 11.85% and the “Avg. % FS” value is given as 9.78%.

Consider “CR003018 (guide GAGCCCCCCACUGUGGUGAC; targeting domain within dual guide RNA, chemistry not given here, further chemistry not given here; listed as Homo sapiens)”, for which, in the series on CIITA, the “Avg. % Edit” value was determined as 27.72% and the “Avg. % FS” value was 26.54%.

Turning to “CR003000 (guide CUUCCAGGACUCCCAGCUGG; targeting domain within dual guide RNA, chemistry not given here, further chemistry not given here; listed as Homo sapiens)”, in the series with CIITA, the “Avg. % Edit” value is 12.83% and the “Avg. % FS” value was found to be 10.53%.

With “CR003020 (guide ACUGCCAGUCACCACAGUGG; targeting domain within dual guide RNA, chemistry not given here, further chemistry not given here; listed as Homo sapiens)”, in the series with CIITA, the “Avg. % Edit” value is listed as 23.67% and the “Avg. % FS” value is on record as 16.44%.

For the substance “CR002999 (guide UGUCUUCCAGGACUCCCAGC; targeting domain within dual guide RNA, chemistry not given here, further chemistry not given here; listed as Homo sapiens)”, in the series with CIITA, the “Avg. % Edit” value was determined as 23.50% and the “Avg. % FS” value worked out at 18.58%.

Consider “CR002983 (guide CUUCUCCAGCCAGGUCCAUC; targeting domain within dual guide RNA, chemistry not given here, further chemistry not given here; listed as Homo sapiens)”, for which, in the series with CIITA, the “Avg. % Edit” value was found to be 35.90% and the “Avg. % FS” value is 33.83%.

With “CR003003 (guide CUUGCUCAGGCCCUCCAGCU; targeting domain within dual guide RNA, chemistry not given here, further chemistry not given here; listed as Homo sapiens)”, in the series on CIITA, the “Avg. % Edit” value came to 35.07% and the “Avg. % FS” value is on record as 27.91%.

In the case of “CR002975 (guide UAGAAGUGGUAGAGGCACAG; targeting domain within dual guide RNA, chemistry not given here, further chemistry not given here; listed as Homo sapiens)”, in the series on CIITA, the “Avg. % Edit” value turned out to be 19.31% and the “Avg. % FS” value is 15.82%.

For “CR002977 (guide CAUAGAAGUGGUAGAGGCAC; targeting domain within dual guide RNA, chemistry not given here, further chemistry not given here; listed as Homo sapiens)”, in the series on CIITA, the “Avg. % Edit” value is 19.11% and the “Avg. % FS” value is 12.99%.

As to “CR003025 (guide GUGACUGGCAGUCUCCUAGU; targeting domain within dual guide RNA, chemistry not given here, further chemistry not given here; listed as Homo sapiens)”, in the series with CIITA, the “Avg. % Edit” value worked out at 24.52% and the “Avg. % FS” value stood at 19.21%.

Turning to “CR003008 (guide CUCUCACCGAUCACUUCAUC; targeting domain within dual guide RNA, chemistry not given here, further chemistry not given here; listed as Homo sapiens)”, in the series on CIITA, the “Avg. % Edit” value is reported as 15.30% and the “Avg. % FS” value is 10.91%.

Take “CR003016 (guide UUCCGGCAGACCUGAAGCAC; targeting domain within dual guide RNA, chemistry not given here, further chemistry not given here; listed as Homo sapiens)”: in the series with CIITA, the “Avg. % Edit” value came out at 17.86% and the “Avg. % FS” value is 13.55%.
